Test results reported in patent US8071317B2, “Methods for detection of hydrophobic drugs” (Siemens Healthcare Diagnostics Inc., priority 2007, dated 2011).

Tested on: anti-sirolimus antibody
Test: Sirolimus ACMIA immunoassay: metabolite cross-reactivity in whole blood
Type: binding
From the text: Testing was done using the DIMENSION® RxL analyzer, available from Dade Behring Inc., Newark Del. The instrument was employed using ACMIA immunoassay technology. The ACMIA assay method is disclosed in U.S. Pat. Nos. 7,186,518, 5,147,529, 5,128,103, 5,158,871, 4,661,408, 5,151,348, 5,302,532, 5,422,284, 5,447,870, 5,434,051, the disclosures of which are incorporated herein in their entirety). In the embodiment of the ACMIA method used herein and discussed in more detail below, competition between sirolimus analog on chrome particles and sirolimus (SIRO) in patient samples for antibody for sirolimus conjugated to an enzyme (conjugate) was utilized to determine the amount of sirolimus in the patient samples. Conjugate that binds to the sirolimus analog on chrome particles was removed by magnetic separation. The enzymatic activity from conjugate remaining in the supernatant is measured and is directly proportional to the amount of sirolimus in the patient sample. In the ACMIA assay format employed, the enzymatic activity observed when testing a sample containing no sirolimus was indicative of the amount of enzymatic activity that was not bound to active antibody (i.e., cannot bind sirolimus on chrome particles). The enzymatic activity observed when no chrome particle is present is indicative of the total amount of enzymatic activity in the conjugate. These values can be used to estimate the percent of enzymatic activity bound to active antibody.
Monoclonal anti-sirolimus antibody (Wyeth Pharmaceuticals, Cambridge Mass.) was conjugated to β-galactosidase using a standard heterobifunctional SMCC (succinimidyl trans-4-(N-maleimidylmethyl)cyclohexane-1-carboxylate) linker according to known techniques. The antibody conjugate solution contained approximately 7.5 μg/mL anti-sirolimus antibody-β-galactosidase conjugate, 30 mg/mL protease free bovine serum albumin, 0.126 mg/mL MgCl2, 0.03 mL/mL of Ethylene glycol, 35.14 mg/mL PIPES 1.5 sodium salt, 50 mg/mL NaCl and beta-gal mutein (inactivated beta-galactosidase), pH 6.5.
Sirolimus chrome particles (immunoassay solid phase) were prepared by conjugating sirolimus-C26- or -C32-CMO conjugate to DA10-Dexal-Chromium Dioxide particles using N-hydroxysuccinimide (NHS) ester and 1-ethyl-3-(3-dimethylaminopropyl)carbodiimide (EDAC) chemistry. See, for example, U.S. Pat. No. 6,231,982, the relevant disclosure of which is incorporated herein by reference. The sirolimus chrome particles are then made into sirolimus chrome particle tablets. Each sirolimus tablet contains approximately 2 mg sirolimus chrome particle slurry, 30.4 mg trehalose dihydrate and 3.6 mg CARBOWAX® 100 μm.
The principle and operation of the ACMIA assay for sirolimus were as follows: pretreatment reagent without FKE or with FKE containing organic solvent as the selective solubility agent was added to a reaction vessel on the DIMENSION® RxL analyzer. Next, 18 μL of whole blood containing sirolimus or its metabolites was added. The whole blood was sampled from a standard cup by first mixing the blood with the ultrasonic sample probe. The mixing of whole blood sample with the pretreatment solution ensured the hemolysis of the whole blood and the displacement of the protein bound sirolimus molecules from their binding sites when the tacrolimus carbamate molecules were present. Anti-sirolimus antibody-β-galactosidase conjugate (50 μL) was added next and was allowed to react with sirolimus in the sample. The chrome particles with immobilized sirolimus-CMO-DA10-Dexal were added (50 μL) and were allowed to bind the un-bound conjugate. […] The sirolimus-bound conjugate was detected by transferring the supernatant from the reaction vessel to a photometric cuvette and measuring the enzymatic rate of the conjugate in the presence of chlorophenol red-β-D-galactopyranoside (CPRG). The rate was measured bichromatically at 577 and 700 nm. […]

[1] = PT with 15 μg/mL FKE & 15% DMSO

Compound | sirolimus metabolite cross-reactivity [1] | sirolimus metabolite cross-reactivity (PT with 15 μg/mL FKE, no DMSO) | sirolimus metabolite cross-reactivity (PT with Neither FKE Nor DMSO) | % Cross-Reactivity (Control: no organic solvent in pretreatment reagent, recovery as percent of parent sirolimus) | % Cross-Reactivity (DMSO 10% in pretreatment reagent, 2.3% in reaction mixture, 15 μg/mL FK506 ester) | % Cross-Reactivity (DMSO 15% in pretreatment reagent, 3.4% in reaction mixture, 15 μg/mL FK506 ester) | % Cross-Reactivity (Methoxypropanol 10% in pretreatment reagent, 2.3% in reaction mixture, 15 μg/mL FK506 ester)
CO[C@@H]1C[C@H](C[C@@H](C)[C@@H]2CC(=O)[C@H](C)/C=C(\C)[C@@H](O)[C@@H](OC)C(=O)[C@H](C)C[C@H](C)/C=C/C=C/C=C(\C)[C@@H](O)C[C@@H]3CC[C@@H](C)[C@@](O)(O3)C(=O)C(=O)N3CCCC[C@H]3C(=O)O2)CC[C@H]1O [7-O-demethyl sirolimus] | −3% | 7% | 6% | – | – | – | –
11-hydroxy sirolimus | 35% | 78% | 315% | – | – | – | –
27,39-O-didesmethyl (or 32,41-O-didesmethyl) sirolimus [27,39 Didesmethyl sirolimus] | 88% | 165% | 569% | 180% | 100% | 88% | 92%
41-O-demethyl sirolimus | 40% | 39% | 48% | – | – | – | –
(N-oxide)-hydroxy sirolimus | 13% | 49% | 152% | – | – | – | –
32-O-desmethyl sirolimus | −3% | 8% | 34% | – | – | – | –
11-hydroxy sirolimus [11-hydroxy sirolimus (isomer of the above)] | 9% | 34% | 114% | – | – | – | –
